Earlier results, collected in US20120263806A1, “Uses of North American Ginseng Fractions for Treating Leukemia” (priority 2007, published 2012).

Legend:
[1] = test system: Adriamycin (ADM)-resistant P388 leukemia cells (P388/ADM)
[2] = test system: NF-kappaβ
[3] = test system: telomerase activity of K562 cells; conditions: at proper concentrations and exposure time

Compound	Cytotoxicity of the anti-cancer drugs (DAU, VBL) in P388/ADM cells [1]	other results
CC(C)=CC/C=C(/C)[C@H]1CC[C@]2(C)[C@@H]1[C@H](O)C[C@@H]1[C@@]3(C)CC[C@H](O)C(C)(C)[C@@H]3[C@@H](O)C[C@]12C [Quasipanaxatriol]	greatly enhanced	Resistance indices (ratios of IC50 values for P388/ADM and P388 parental cells) for DAU and VBL ([1]; 50 μM): decreased significantly
CC(C)=CCC[C@](C)(O)[C@H]1CC[C@]2(C)[C@@H]1[C@H](O)C[C@@H]1[C@@]3(C)CC[C@H](O[C@@H]4O[C@H](CO)[C@@H](O)[C@H](O)[C@H]4O[C@@H]4O[C@H](CO)[C@@H](O)[C@H](O)[C@H]4O)C(C)(C)[C@@H]3CC[C@]12C [Rg(3)]	–	TPA-induced activation of NF-kappaβ in HL-60 cells [2]: inhibited
CC(C)=CCC[C@](C)(O)[C@H]1CC[C@]2(C)[C@@H]1[C@H](O)C[C@@H]1[C@@]3(C)CC[C@H](O[C@@H]4O[C@H](CO)[C@@H](O)[C@H](O)[C@H]4O)C(C)(C)[C@@H]3CC[C@]12C [ginsenoside Rh2]	greatly enhanced	–
CC(C)=CCC[C@](C)(O)[C@H]1CC[C@]2(C)[C@@H]1[C@H](O)C[C@@H]1[C@@]3(C)CC[C@H](O)C(C)(C)[C@@H]3[C@@H](O)C[C@]12C [20(8) protopanaxatriol]	greatly enhanced	–
CC(C)=CCC[C@](C)(O[C@@H]1O[C@H](CO)[C@@H](O)[C@H](O)[C@H]1O)[C@H]1CC[C@]2(C)[C@@H]1[C@H](O)C[C@@H]1[C@@]3(C)CC[C@H](O)C(C)(C)[C@@H]3CC[C@]12C [compound K]	greatly enhanced	–
O=P1(N(CCCl)CCCl)NCCCO1 (stereo not shown) [CTX, cyclophosphamide]	–	Telomerase activity of K562 cells [3]: completely inhibit
